# According to patent US8536137B2, “Methods for treating nucleoside-induced pain” (UCB Pharma GmbH, priority 2004, dated 2013):
# Tests used:
# [1] = tested on: rats intoxicated with anti-retroviral nucleoside analogue AIDS therapy drugs; settings: intoxicated animals; literature report; cited from earlier work
# [2] = tested on: bone cancer rats (MRMT-1 rat mammary gland carcinoma cells injected into the tibia); test: Bone cancer rat model: weight bearing difference (mechanical hyperalgesia); type: in vivo; settings: SPM 927 40 mg/kg, following treatment; p<0.05
# Method: After one week of quarantine, either culture media or 3×10^4 syngeneic MRMT-1 rat mammary gland carcinoma cells were injected into the medullary cavity of the proximal tibia of each rat. Procedurally, the animal was first anesthetized with ketamine/xylazine and the right leg area shaved and treated with an iodine solution and cleaned with a 70% ethanol solution. A 1-cm rostral-caudal incision was made in the skin over the top half of the tibia. Blunt-dissection was performed to expose the tibia, ensuring minimal damage to muscles or blood vessels. Using a 23-gauge needle, the tibia was pierced. […] The needle was inserted at an angle to enable it to be pushed down into the intramedullary canal of the bone. Once a pathway to the intramedullary canal was opened, the 23-gauge needle was removed and replaced by a blunt needle attached to a 5 μl Hamilton syringe. […]
# On days 7, 8, 14 and 15, pain assessment tests were performed. […] The animals were first evaluated for mechanical allodynia and then thermal hyperalgesia. […] The animals were first evaluated for baseline weight bearing responses. […]
# After the animals in groups 4-6 were re-randomized to drug treatment groups, on day 9, 15 all animals underwent weight-bearing testing. Weight bearing of affected hind limbs was assessed as the difference in weight borne by the ipsilateral compared to the contralateral limb. […]
# vincristine-rats [3] = test: Vincristine-induced pain model: paw pressure test (mechanical hyperalgesia); type: in vivo, rat; settings: day 17; for paw withdrawal latency in paw pressure test (Randall & Selitto): p<0.05 Dunnett's
# Method: (§1) For this study, 86 female Dark Agouti rats (150-200 g) were used (Harlan, Gannat, France), They were group-housed (3 animals per cage) and maintained in a room with controlled temperature (21-22° C.) and a reversed light-dark cycle (12 h/12 h) with food and water available ad libitum. All experiments were carried out in accordance with institutional guidelines. Vincristine intoxication was achieved by daily injection of vincristine (0.15 mg/kg/d, i.p.) from day 1 to 5, from day 8 to 12 and days 15 to 16. On day 17, animals were submitted to the behavioral test and received pharmacological treatment.
# (§2) The nociceptive flexion reflex was quantified using the Randall-Selitto paw pressure device (Bioseb, France), which applies a linearly increasing mechanical force to the dorsum of the rat's hind paw. The mechanical nociceptive threshold was defined as the force in grams at which the rat withdrew its paw. The cut off pressure was set to 250 g.
# (§3) ANOVA followed by post-hoc analysis (Dunneft's test) was used to compare groups of behavioral data in each individual time points.
# [4] = tested on: bone cancer rats (MRMT-1 rat mammary gland carcinoma cells injected into the tibia); test: Bone cancer rat model: thermal paw stimulation (thermal hyperalgesia); type: in vivo; settings: SPM 927 30 mg/kg, days 14 and 15; Dunnett's p<0.001
# Method: Cells were cultured in medium containing RPMI-1640 (Gibco, 500 ml), 10% heat-inactivated fetal bovine serum (Hyclone), L-glutamine (final concentration 2 mM, from Gibco) and antibiotic solution (final concentration 100 U/ml penicillin and 100 ug/ml streptomycin sulfate, from Gibco). Cells were released from the tissue culture flask by brief exposure to 0.1% trypsin so (Gibco) and then prepared for injection as follows: cells were centrifuged for 10 minutes at approximately 1,200 rpm. The resulting pellet was washed twice in Phosphate Buffered Saline (PBS, Mediatech) containing no calcium or magnesium. Final pellet was re-suspended in PBS and cell count taken using a hemocytometer. Cells were diluted to achieve final concentrations for injection and kept on ice until injection was performed.
# After one week of quarantine, either culture media or 3×10^4 syngeneic MRMT-1 rat mammary gland carcinoma cells were injected into the medullary cavity of the proximal tibia of each rat. Procedurally, the animal was first anesthetized with ketamine/xylazine and the right leg area shaved and treated with an iodine solution and cleaned with a 70% ethanol solution. A 1-cm rostral-caudal incision was made in the skin over the top half of the tibia. […]
# On days 7, 8, 14 and 15, pain assessment tests were performed. […] The animals were first evaluated for mechanical allodynia and then thermal hyperalgesia. […]
# ddC-rats [5] = test: Nucleoside-induced pain model (ddC): paw pressure test at D10 (mechanical hyperalgesia); type: in vivo, rat; settings: p<0.05 Dunnett's
# Excerpt: as §2, §3
# (§4) For this study, 50 male Sprague Dawley (˜220 g) rats were used (Janvier, Le Genest-St-isle, France). Rats were group-housed (3 animals per cage) and maintained in a room with controlled temperature (21-22° C.) and a reversed light-dark cycle (12 h/12 h) with food and water available ad libitum. All experiments were carried out in accordance with institutional guidelines. Intoxication was achieved by a single injection of ddC (50 mg/kg, I.V. in tail vein).
# vincristine-rats [6] = test: Vincristine-induced pain model: hot plate test at 52° C. (thermal hyperalgesia); type: in vivo, rat; settings: day 17, p<0.05 Dunnett's, comparable with control
# Method: as §1
# (§5) Animals were placed into a glass cylinder on a hot plate (Bioblock, France) adjusted to 38° C. or 52° C. The latency of the first reaction (licking, moving the paws, little leaps or a jump to escape the heat) was recorded with a cut off time of 30 s.
# as §3
# ddC-rats [7] = test: Nucleoside-induced pain model (ddC): von Frey filament test at D10 (mechanical allodynia); type: in vivo, rat; settings: for paw withdrawal latency in von Frey filament test, difference with vehicle-treated group: p<0.05, level comparable to control group
# Method: (§6) Rats were placed on a metallic grid floor. The nociceptive testing was done by inserting the von Frey filament (Bioseb, France) through the grid floor and applying it to the plantar surface of the hind paw. A trial consisted of several applications of the different von Frey filaments (at a frequency of 1-1.5 s). The von Frey filaments were applied from filament 10 g to 100 g. The mechanical allodynia threshold was recorded as soon as the animal removed its hind paw the test was stopped and the filament number was recorded.
# as §3, §4
# ddC-rats [8] = test: Nucleoside-induced pain model (ddC): cold bath test (thermal allodynia); type: in vivo, rat; settings: for threshold latency in cold bath test vs ddC/vehicle: p<0.05 Dunnett's, comparable to control animals
# Method: (§7) Animals were placed on ice platform submerged approximately 1 cm below the surface of cold water (4° C.), such that the hairy and glabrous skin of the animal feet was in contact with the cold water. The latency before the first reaction (licking, moving the paws, little leaps) was recorded with a cut off time of 30 s.
# as §3, §4
# vincristine-rats [9] = test: Vincristine-induced pain model: von Frey hair stimulation test (mechanical allodynia); type: in vivo, rat; settings: day 17; for paw withdrawal latency in von Frey filament test, difference with vehicle-treated group: p<0.05 Dunnett's
# Method: as §1, §6, §3
# [10] = tested on: rat model of bone cancer pain, chemotherapy- and nucleoside-induced pain; test: Overall summary of the bone cancer, chemotherapy-induced and nucleoside-induced pain models; type: in vivo; settings: across the three rat models
# Excerpt: The effect of systemic administration of SPM 927 was examined in rats in a tumor-induced bone cancer pain model, in a chemotherapy-induced and a nucleoside analogue-induced neuropathic pain model. SPM 927 reduced mechanical and thermal hyperalgesia as well as mechanical and thermal allodynia in these models.
# vincristine-rats [11] = test: Vincristine-induced pain model: cold bath test (thermal allodynia); type: in vivo, rat; settings: day 17; for threshold latency in cold bath test vs vincristine/vehicle: 30 min before test
# Method: as §1, §7, §3
# ddC-rats [12] = test: Nucleoside-induced pain model (ddC): brushing test at day 20 (mechanical allodynia); type: in vivo, rat
# Method: as §3, §4
# The hair on the legs, flanks, and lower back was sequentially brushed with a cotton-tipped applicator using an oscillating motion (rate of 1-2/s; 30 sec). Brushing was done with no more force than required to move the applicator through the hair such that only the pelage is disturbed. Vocalization and moderate effects to avoid the brushing were counted.
# vincristine-rats [13] = test: Vincristine-induced pain model: hot plate test at 38° C. (thermal allodynia); type: in vivo, rat; settings: day 17
# Method: as §1, §5, §3
# ddC-rats [14] = test: Nucleoside-induced pain model (ddC): hot plate test at 52° C. at D20 (thermal hyperalgesia); type: in vivo, rat
# Method: as §5, §3, §4
compound,measurement,setting,value
COc1cc(N(CC(=O)O)CC(=O)O)c2nc(COc3cc(C)ccc3N(CC(=O)O)CC(=O)O)ccc2c1 [Quin-2],reversal of nucleoside reverse transcriptase inhibitor-induced hypersensitivity,[1],capable of reversing
"COC[C@@H](NC(C)=O)C(=O)NCc1ccccc1 [SPM 927, (R)-2-acetamide-N-benzyl-3-methoxypropionamide]",amount of weight placed on contralateral paw (weight bearing difference) vs 'cells only' group,[2],significant reduction
same,paw withdrawal latency in paw pressure test (Randall & Selitto),vincristine-rats [3]; SPM 927 10 mg/kg i.p.,significant increase
same,paw withdrawal latency in paw pressure test (Randall & Selitto),vincristine-rats [3]; SPM 927 30 mg/kg i.p.,significant increase
same,"latency to remove paw (thermal paw testing), post-treatment vs 'cells only'",[4],different
same,paw withdrawal latency in paw pressure test (Randall & Selitto),ddC-rats [5]; SPM 927 3 mg/kg i.p.,significant increase
same,paw withdrawal latency in paw pressure test (Randall & Selitto),ddC-rats [5]; SPM 927 10 mg/kg i.p.,significant increase
same,paw withdrawal latency in paw pressure test (Randall & Selitto),ddC-rats [5]; SPM 927 30 mg/kg i.p.,significant increase
same,paw withdrawal latency in hot plate test at 52° C. vs vehicle-treated animals,vincristine-rats [6]; SPM 927 3 mg/kg i.p.,significant increase
same,paw withdrawal latency in hot plate test at 52° C. vs vehicle-treated animals,vincristine-rats [6]; SPM 927 10 mg/kg i.p.,significant increase
same,paw withdrawal latency in hot plate test at 52° C. vs vehicle-treated animals,vincristine-rats [6]; SPM 927 30 mg/kg i.p.,significant increase
same,"paw withdrawal latency in von Frey filament test, difference with vehicle-treated group",ddC-rats [7]; SPM 927 3 mg/kg i.p.,reached the significance level
same,"paw withdrawal latency in von Frey filament test, difference with vehicle-treated group",ddC-rats [7]; SPM 927 10 mg/kg i.p.,reached the significance level
same,"paw withdrawal latency in von Frey filament test, difference with vehicle-treated group",ddC-rats [7]; SPM 927 30 mg/kg i.p.,reached the significance level
same,threshold latency in cold bath test vs ddC/vehicle,ddC-rats [8]; SPM 927 3 mg/kg i.p.,significant increase
same,threshold latency in cold bath test vs ddC/vehicle,ddC-rats [8]; SPM 927 10 mg/kg i.p.,significant increase
same,threshold latency in cold bath test vs ddC/vehicle,ddC-rats [8]; SPM 927 30 mg/kg i.p.,significant increase
same,"paw withdrawal latency in von Frey filament test, difference with vehicle-treated group",vincristine-rats [9]; SPM 927 10 mg/kg i.p.,reached the significance level
same,"paw withdrawal latency in von Frey filament test, difference with vehicle-treated group",vincristine-rats [9]; SPM 927 30 mg/kg i.p.,reached the significance level
same,analgesic activity compared with morphine,[10]; systemic administration,overall more active than morphine
same,anti-allodynic and anti-hyperalgesic effect,"[10]; systemic, single dose administration",dose-dependent
same,threshold latency in cold bath test vs vincristine/vehicle,"vincristine-rats [11]; SPM 927 3 mg/kg i.p., slightly greater than vincristine-animals",statistical difference was not reached
same,threshold latency in cold bath test vs vincristine/vehicle,"vincristine-rats [11]; SPM 927 10 mg/kg i.p., p<0.05 Dunnett's, comparable to control animals",significant increase
same,threshold latency in cold bath test vs vincristine/vehicle,"vincristine-rats [11]; SPM 927 30 mg/kg i.p., p<0.05 Dunnett's, comparable to control animals",significant increase
same,total number of cries in brushing test,"ddC-rats [12]; SPM 927 3 mg/kg i.p., D 20, p<0.05 Dunnett's",significant decrease
same,total number of cries in brushing test,"ddC-rats [12]; SPM 927 10 mg/kg i.p., D 20, p<0.05 Dunnett's",significant decrease
same,total number of cries in brushing test,"ddC-rats [12]; SPM 927 30 mg/kg i.p., D20, p<0.05 Dunnett's",significant decrease
same,threshold latency in hot plate (38° C.) test vs vincristine/vehicle,vincristine-rats [13]; SPM 927 3 mg/kg i.p.,"significant (p<0.05, Dunneft's test) increase"
same,threshold latency in hot plate (38° C.) test vs vincristine/vehicle,"vincristine-rats [13]; SPM 927 10 mg/kg i.p., comparable with control animals","significant (p<0.05, Dunneft's test) increase"
same,threshold latency in hot plate (38° C.) test vs vincristine/vehicle,"vincristine-rats [13]; SPM 927 30 mg/kg i.p., comparable with control animals","significant (p<0.05, Dunneft's test) increase"
same,"paw withdrawal latency in hot plate test at 52° C., effect",ddC-rats [14]; SPM 927 3 mg/kg i.p.,comparable with untreated vehicle group
same,"paw withdrawal latency in hot plate test at 52° C., effect",ddC-rats [14]; SPM 927 10 mg/kg i.p.,comparable with untreated vehicle group
same,paw withdrawal latency in hot plate test at 52° C. vs vehicle-treated animals,"ddC-rats [14]; SPM 927 30 mg/kg i.p., p<0.05 Dunnett's",significant increase
CCN(CC)CCCCCCCCOC(=O)c1cc(OC)c(OC)c(OC)c1 [TMB-8],reversal of nucleoside reverse transcriptase inhibitor-induced hypersensitivity,[1],capable of reversing
"CN1CC[C@]23c4c5ccc(O)c4O[C@H]2[C@@H](O)C=C[C@H]3[C@H]1C5 [morphine, reference compound]",performance in paw pressure test (Randall & Selitto),"vincristine-rats [3]; morphine 3 mg/kg s.c., p>0.05",did not modify the performance
same,performance in paw pressure test (Randall & Selitto),ddC-rats [5]; morphine 3 mg/kg s.c.,increased the performance
same,performance in von Frey filament test,ddC-rats [7]; morphine 3 mg/kg s.c.,restored the performance of ddC-rats to a level similar to control group
same,"threshold latency in cold bath test, level reached",ddC-rats [8]; morphine 3 mg/kg s.c.,comparable to that obtained from control rats
same,performance in von Frey filament test,vincristine-rats [9]; morphine 3 mg/kg s.c.,restored the performance of vincristine-rats to a level comparable with that of control group
same,"threshold latency in cold bath test, level reached","vincristine-rats [11]; morphine 3 mg/kg s.c., 45 min before test",far above that obtained from control rats
same,total number of cries in brushing test,"ddC-rats [12]; morphine 3 mg/kg s.c., D 20",significantly decrease
same,"threshold latency in hot plate (38° C.) test, level reached",vincristine-rats [13]; morphine 3 mg/kg s.c.,comparable with that of control rats
